What was measured:
[1] = system: α7nAChR (Aβ42 binding); assay: FITC-Aβ42 binding to biotinylated α7nAChR-containing SK-N-MC cell fragments; parameters: species or system human; conditions: added simultaneously, 30° C., 30 minutes
[2] = biological target: T1, FLNA (Homo sapiens, UniProt P21333); assay: [3H]NLX competition binding to FLNA in A7 cell membranes; conditions: 0.5 nM [3H]NLX, N=4, read-out: IC50-L, inhibition of [3H]NLX binding
T1 construct: validate the use of that 5-mer peptide as a surrogate for the complete molecule in the assays carried out herein; host or cells: A7 cells

[3] = biological target: T1, FLNA; assay: [3H]NLX competition binding to FLNA in SK-N-MC cell membranes; conditions: read-out: IC50-L, inhibition of [3H]NLX binding
[4] = biological target: FLNA pentamer VAKGL of SEQ ID NO: 1 (Homo sapiens, UniProt P21333); assay: [3H]NLX displacement from biotinylated VAKGL peptide; conditions: Bn-VAKGL peptide; single IC50; N=4; read-out: IC50, inhibition of [3H]NLX binding
Procedure: Nonspecific binding was defined by 1 mM NTX. The reaction was terminated by addition of 1 ml of ice-cold binding medium. The [^3H]NLX-bound Bn-VAKGL was trapped by incubation with […] NeutrAvidin®-agarose (Thermo), followed by centrifugation. Following two 1.5 ml washes with PBS, the bound [^3H]NLX was determined using scintillation spectrometry. […] N=4.

[5] = system: ERK2; assay: Aβ42-induced ERK2 activation (pERK2) in rat frontal cortical synaptosomes; format: cell-based; conditions: simultaneous treatment
Procedure: FIG. 3 in two panels as FIG. 3A and FIG. 3B, illustrates that FLNA-binding compounds reduce Aβ-induced α7nAChR-mediated ERK2 signaling. In the same treated synaptosomes used in FIG. 2, levels of phosphorylated (activated) ERK2 were measured in immunoprecipitates of ERK2. […] Immunoprecipitates were determined by Western blotting (FIG. 3A) and quantified for four compounds by densitometry (FIG. 3B). n=3.
Phosphorylation of ERK2 indicates its activation, which leads to tau phosphorylation.

[6] = system: FLNA-TLR4 association; assay: FLNA association with TLR4 in organotypic frontocortical slice cultures; format: cell-based, rat; conditions: 100 nM Aβ42, 16 hours, compound added simultaneously
Procedure: Tissue was harvested and solubilized, and a specific antibody against FLNA was used to immunoprecipitate FLNA and associated proteins. The FLNA immunoprecipitate was size-fractionated using SDS-PAGE, transferred and probed with specific antibodies directed against each of the following receptors: α7nAChR, TLR4, IR and MOR.
Rat brain slice organotypic culture methods were modified from those published previously. [Adamchik et al., Brain Res Brain Res Protoc 5:153-158 (2000).] FCX slices ([…]) were transferred to sterile, porous Millicell-CM inserts (0.4 μm). Each culture insert unit contained two brain slices and was placed into individual wells of a 12-well culture tray in 2 ml medium: 50% MEM with Earl's salts, 2 mM L-glutamine, 25% Earl's balanced salt solution, 6.5 g/l D-glucose, 20% fetal bovine serum (FBS), 5% horse serum, 25 mM HEPES buffer, pH 7.2, and […]. […]
The level of FLNA-associated α7nAChRs was determined using a co-immunoprecipitation/Western blotting method as described previously. […] The levels of FLNA-associated α7nAChR, TLR4, IR and MOR were assessed by Western blotting using specific antibodies directed against the respective proteins and the blot stripped and re-probed for FLNA for immunoprecipitation/loading control.

[7] = system: α7nAChR; format: cell-based, rat
[8] = system: NMDAR; format: cell-based, rat; conditions: slice cultures, 0.1 μM Aβ42
[9] = system: insulin receptor (IR); assay: IR activation and signaling (pY1150/1151 IRβ, IRS-1) in slice cultures; format: cell-based, rat; conditions: insulin stimulation
Procedure: IR activation and signaling was initiated by incubation of 6 slices that were further chopped horizontally into 100 μm (100 μm×200 μm×3 mm) with either KR (basal) or KR containing 1 nM insulin at 37° C. for 30 minutes. […] Ligand stimulation was terminated by the addition of 1 ml of ice-cold Ca^2+-free K-R containing mixture of protein phosphatase inhibitors, 0.5 mM EGTA and 0.1 mM EDTA. Brain slices were harvested by a brief centrifugation and were homogenized in 0.25 ml of ice-cold immunoprecipitation buffer. The homogenates were centrifuged at 1000×g for 5 minutes (4° C.) and the supernatant (post-mitochondrial fraction) was sonicated for 10 seconds on ice. […] The resultant lysates were then cleared by centrifugation at 50,000×g for 5 minutes and diluted with 0.75 ml of immunoprecipitation buffer. Protein concentrations were measured by Bradford method (Bio-Rad).
In these experiments, brain slice lysates (100 μg) were immunoprecipitated overnight (about 18 hours) at 4° C. with 2 μg of immobilized anti-IRβ onto covalently conjugated protein A-agarose beads (Pierce-ENDOGEN). […]

[10] = system: NMDAR; format: in vivo, mouse; conditions: 10 mg/kg twice daily
[11] = system: voltage-gated Ca2+ channel mediated Ca2+ influx; format: in vivo, mouse; conditions: 10 mg/kg twice daily
[12] = system: insulin receptor (IR); assay: ICV Aβ42 infusion mouse model: IR signaling; format: in vivo; conditions: 10 mg/kg twice daily
Procedure: IR activation and signaling was initiated by incubation of tissue with either K-R (basal) or K—R containing 1 nM insulin at 37° C. for 30 minutes. […] Ligand stimulation was terminated by the addition of 1 ml of ice-cold Ca^2+-free K-R containing mixture of protein phosphatase inhibitors, 0.5 mM EGTA and 0.1 mM EDTA.
Tissues were briefly centrifuged and homogenized in 0.25 ml of ice-cold immunoprecipitation buffer. The homogenates were centrifuged at 1000×g for 5 minutes (4° C.) and the supernatant (post-mitochondrial fraction) was sonicated for 10 seconds on ice. […] The resultant lysates were then cleared by centrifugation at 50,000×g for 5 minutes and diluted with 0.75 ml of immunoprecipitation buffer. Protein concentrations were measured by Bradford method (Bio-Rad).
In these studies, brain tissue lysates (100 μg) were immunoprecipitated overnight (about 18 hours) at 4° C. with 2 μg of immobilized anti-IRβ onto covalently conjugated protein A-agarose beads (Pierce-ENDOGEN).
Anti-IRβ immunoprecipitates were incubated with 75 μl antigen elution buffer (Pierce-ENDOGEN) and 2% SDS for 2 minutes on ice, centrifuged to remove antibody-protein A-agarose complexes and neutralized immediately with 10 μl 1.5 M Tris buffer, pH 8.8 followed by addition of 65 μl 2× PAGE sample buffer and boiled for 5 minutes. […]

[13] = biological target: T2, α7nAChR-FLNA complex (Homo sapiens, UniProt P21333); assay: Postmortem human frontal cortex: α7nAChR-FLNA association; format: cell-based; conditions: AD and Aβ42-treated control tissue; 0.1 or 1 nM
T2 construct: from tissue; host or cells: postmortem frontal cortex slices / synaptosomes (AD and control subjects)
Procedure: Postmortem frontal cortex tissues were gradually thawed (from −80° C. to −20° C.) and were sliced using a chilled McIlwain tissue chopper (200 μm×200 μm×3 mm). […] Following two additional washes with 1 ml of ice-cold K-R, brain slices were suspended in 1 ml of K-R.
Incubation continued for 1 hour in the dark to minimize light destruction of the test agents. […] Reaction was terminated by the addition of 1.5 ml of ice-cold Ca^2+-free K-R. Tissue slices were harvested by a brief centrifugation and used as the tissue sources for various assays.

[14] = system: α7nAChR; format: cell-based, human; conditions: AD and Aβ42-treated control brain slices
[15] = system: NMDAR; assay: Postmortem human frontal cortex: NMDAR signaling and association with PSD-95; format: cell-based; conditions: AD brain slices, 1 nM, one hour incubation
Procedure: NMDAR activation and signaling were initiated by incubation of approximately 10 mg of in vitro treated brain slices with either LMKR (basal) or LMKR containing 10 μM NMDA and 1 μM glycine at 37° C. for 30 minutes. […] Ligand stimulation was terminated by the addition of 1 ml of ice-cold Ca^2+-free K-R containing 0.5 mM EGTA and 0.1 mM EDTA.
Brain slices were harvested by a brief centrifugation and were homogenized in 0.25 ml of ice-cold immunoprecipitation buffer. The homogenates were centrifuged at 1000×g for 5 minutes (4° C.) and the supernatant (post-mitochondrial fraction) is sonicated for 10 seconds on ice. […] The resultant lysates are then cleared by centrifugation at 50,000×g for 5 minutes and diluted with 0.75 ml of immunoprecipitation buffer. Protein concentrations are measured by Bradford method (Bio-Rad).
To determine the NMDAR signaling and the NMDAR complexes association with PSD-95 [also known as Disks large homolog 4 (DLH4)], the levels of NMDAR subunits, PSD-95 and NMDAR-associated signaling molecules were measured in anti-NR1 immunoprecipitates.
In these studies, brain slice lysates (200 μg) were immunoprecipitated overnight (about 18 hours) at 4° C. with 2 μg of immobilized anti-NR1 onto covalently conjugated protein A-agarose beads (Pierce-ENDOGEN). […]

T1 sequence (P21333 whole entry): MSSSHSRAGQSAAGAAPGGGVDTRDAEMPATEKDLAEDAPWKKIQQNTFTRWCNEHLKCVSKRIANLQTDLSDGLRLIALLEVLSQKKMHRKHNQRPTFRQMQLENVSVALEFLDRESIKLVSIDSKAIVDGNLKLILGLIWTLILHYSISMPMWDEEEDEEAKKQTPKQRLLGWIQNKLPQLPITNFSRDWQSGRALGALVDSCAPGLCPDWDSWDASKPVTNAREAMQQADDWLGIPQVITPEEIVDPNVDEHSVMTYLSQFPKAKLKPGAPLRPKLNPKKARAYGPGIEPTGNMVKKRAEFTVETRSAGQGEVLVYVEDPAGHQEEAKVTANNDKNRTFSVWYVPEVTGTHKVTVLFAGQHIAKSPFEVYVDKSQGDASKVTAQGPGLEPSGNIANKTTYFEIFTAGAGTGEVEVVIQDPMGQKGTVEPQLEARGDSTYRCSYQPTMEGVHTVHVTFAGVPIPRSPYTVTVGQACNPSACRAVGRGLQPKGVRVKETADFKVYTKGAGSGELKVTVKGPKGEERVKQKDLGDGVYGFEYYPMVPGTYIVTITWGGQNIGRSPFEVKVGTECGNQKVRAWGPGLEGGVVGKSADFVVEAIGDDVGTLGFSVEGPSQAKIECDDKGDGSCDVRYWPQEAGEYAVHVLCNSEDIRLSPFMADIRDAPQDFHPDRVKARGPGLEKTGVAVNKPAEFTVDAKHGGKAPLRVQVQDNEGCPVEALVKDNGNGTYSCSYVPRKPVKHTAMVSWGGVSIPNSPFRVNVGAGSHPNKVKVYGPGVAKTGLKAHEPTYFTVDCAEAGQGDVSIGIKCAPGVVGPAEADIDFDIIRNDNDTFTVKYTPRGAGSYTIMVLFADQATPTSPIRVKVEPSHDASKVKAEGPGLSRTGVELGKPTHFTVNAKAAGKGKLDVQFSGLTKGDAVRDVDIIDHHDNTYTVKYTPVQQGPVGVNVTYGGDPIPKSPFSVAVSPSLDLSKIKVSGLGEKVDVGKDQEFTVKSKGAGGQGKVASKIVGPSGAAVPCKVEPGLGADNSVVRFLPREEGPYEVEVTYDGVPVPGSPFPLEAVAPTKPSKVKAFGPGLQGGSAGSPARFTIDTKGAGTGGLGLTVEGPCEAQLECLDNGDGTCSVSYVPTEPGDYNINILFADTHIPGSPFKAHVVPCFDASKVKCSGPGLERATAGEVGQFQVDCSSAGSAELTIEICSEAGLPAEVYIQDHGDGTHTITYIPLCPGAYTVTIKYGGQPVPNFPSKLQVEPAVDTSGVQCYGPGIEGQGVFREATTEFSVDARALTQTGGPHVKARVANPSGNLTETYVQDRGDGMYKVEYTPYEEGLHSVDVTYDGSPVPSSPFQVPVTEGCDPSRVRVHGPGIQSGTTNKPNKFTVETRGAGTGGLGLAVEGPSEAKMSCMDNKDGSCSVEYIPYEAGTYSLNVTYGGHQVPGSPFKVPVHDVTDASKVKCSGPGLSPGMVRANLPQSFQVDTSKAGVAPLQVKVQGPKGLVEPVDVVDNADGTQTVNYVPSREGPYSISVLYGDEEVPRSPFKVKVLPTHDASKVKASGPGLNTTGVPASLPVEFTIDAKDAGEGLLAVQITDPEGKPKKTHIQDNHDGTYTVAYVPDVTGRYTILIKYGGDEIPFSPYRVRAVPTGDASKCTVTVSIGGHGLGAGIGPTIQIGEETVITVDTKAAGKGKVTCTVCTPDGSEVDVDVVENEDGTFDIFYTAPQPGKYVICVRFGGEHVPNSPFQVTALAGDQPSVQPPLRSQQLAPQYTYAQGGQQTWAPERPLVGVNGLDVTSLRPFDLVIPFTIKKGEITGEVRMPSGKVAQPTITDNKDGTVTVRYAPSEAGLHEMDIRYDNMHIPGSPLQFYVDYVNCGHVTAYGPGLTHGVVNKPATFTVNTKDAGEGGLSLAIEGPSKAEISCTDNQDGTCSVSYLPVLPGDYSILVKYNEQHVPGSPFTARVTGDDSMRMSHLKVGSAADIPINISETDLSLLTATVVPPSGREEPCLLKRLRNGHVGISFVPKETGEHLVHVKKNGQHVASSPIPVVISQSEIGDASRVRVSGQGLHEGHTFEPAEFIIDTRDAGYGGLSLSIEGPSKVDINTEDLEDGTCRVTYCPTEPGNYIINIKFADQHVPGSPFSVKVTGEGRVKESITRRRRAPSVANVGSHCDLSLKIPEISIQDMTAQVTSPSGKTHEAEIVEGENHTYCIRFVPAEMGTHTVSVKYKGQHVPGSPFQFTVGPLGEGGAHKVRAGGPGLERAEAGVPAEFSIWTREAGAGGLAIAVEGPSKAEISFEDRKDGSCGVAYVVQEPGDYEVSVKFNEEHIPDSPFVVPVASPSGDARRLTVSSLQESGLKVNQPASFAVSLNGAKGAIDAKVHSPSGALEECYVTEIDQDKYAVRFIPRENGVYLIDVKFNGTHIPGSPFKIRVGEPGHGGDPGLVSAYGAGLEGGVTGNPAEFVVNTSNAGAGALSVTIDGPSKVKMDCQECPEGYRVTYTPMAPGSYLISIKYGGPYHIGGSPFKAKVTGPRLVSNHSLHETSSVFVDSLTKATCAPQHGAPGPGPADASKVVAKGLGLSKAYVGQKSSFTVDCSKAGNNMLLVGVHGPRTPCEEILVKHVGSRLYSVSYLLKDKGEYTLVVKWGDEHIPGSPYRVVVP

CN1CCC2(CC1)NCC(=O)N2Cc1ccccc1 [Compound C0105]
Inhibition of FITC-Aβ42 binding ([1]; 0.1 nM compound): 52.3±3.7% | Inhibition of FITC-Aβ42 binding ([1]; 1 nM compound): 55.1±3.0% | Inhibition of FITC-Aβ42 binding ([1]; 10 nM compound): 56.5±4.2% | IC50 [2]: 0.226 nM | IC50 [3]: 0.111 nM | IC50 [4]: 0.00276 nM | ERK2 activation (pERK2) [5]: greatly suppressed | Aβ42-induced increase in FLNA-TLR4 association [6]: reduced the increase in FLNA-TLR4 at 1 and 10 nM | Aβ42-induced impairment in α7nAChR function (calcium influx after PNU282987) [7]: fully restoring function | Aβ42-induced impairment in NMDAR function (calcium influx after NMDA and glycine) [8]: completely prevented by 1 and 10 nM | Aβ42-induced IR signaling impairments (IRS-1 association, pY1150/1151 IRβ) [9]: normalized the signaling impairments | Aβ42-induced NMDAR dysfunction (calcium influx after NMDA and glycine) [10]: restored the Aβ42-induced NMDAR dysfunction | K+-evoked calcium influx [11]: restored it | IR signaling (IRβ phosphorylation, IRS-1 association) [12]: restored | FLNA association with α7nAChR [13]: reduces Aβ42-induced FLNA association with α7nAChR and TLR4 | Functioning of α7nAChR (calcium influx after receptor stimulation) [14]: preserves functioning | NMDAR signaling impairment (six measures) [15]: normalized all six measures
